Results published in US20080221205A1, “FURAN DERIVATIVES FOR PREVENTING AND CURING OSTEOPOROSIS AND PHARMACEUTICAL COMPOSITIONS CONTAINING THE SAME” (priority 2002, published 2008).

Tested on: osteoclast formation
Assay: Inhibition rate of furan derivatives versus osteoclast formation (TRAP staining)
Assay type: cell-based, mice
Conditions: TRAP-positive multinucleated cells, untreated control set as 100%
Procedure: First, bone marrow cells were isolated, as follow. After sacrificing 7-9 week female mice by cervical dislocation, femur and tibia were excised aseptically while removing attached soft tissues. After cutting both ends of long bones, 1 ml of an enzyme solution, containing 0.1% collagenase (Gibco), 0.05% trypsin and 0.5 mM EDTA (Gibco), was injected to the bone marrow cavity at one end using a syringe with a 26-guage needle, and bone marrow was then collected. After shaking the recovered bone marrow for 30 min, bone marrow cells were collected, and cultured in α-minimum essential medium (α-MEM) supplemented with 10% FBS for 24 hrs. Then, non-adherent cells were collected, which are osteoclast pregenitors, aliquotted onto culture plates at a density of 2×10^5 cells per well, and cultured for 8 days in α-MEM supplemented with 20 ng/ml of macrophage-colony stimulating factor (M-CSF, Peprotech, USA) and 30 ng/ml RANKL (Peprotech, USA). During the 8 days of culturing, the cells were treated with the Compound 1. Thereafter, osteoclast formation was investigated by fixing the cultured cells and then carrying out TRAP staining, as described in the following Experimental Example 2.2. In addition, resorption activity of osteoclasts was investigated by measuring the absorption area after removing osteoclasts in cultures in calcium phosphate-coated plates, as described in Experimental Example 2.3, below.
After cell culture, the adherent cells were washed with PBS, and TRAP staining was performed, as follows. After being fixed with citrate-acetate-formaldehyde for 5 min, the cells were incubated for 1 hr in acetate buffer (prewarmed at 37° C., pH 5.0) containing naphthol AS-BI phosphate, fast Garnet GBC and 7 mM tartrate buffer (pH 5.0). TRAP-positive multinucleated cells having 3 or more nuclei were considered as osteoclasts.
Osteoclast pregenitor cells were isolated, and their differentiation to mature osteoclasts was induced, according to the same method as in the Experimental Example 2-1, while treated with each of the furan derivatives of the present invention. According to the same method as in the Experimental Example 2-2, TRAP staining performed, and TRAP-positive multinucleated cells were counted. An inhibition rate of each furan derivative against osteoclast formation was expressed as percentage, wherein the number of stained cells in a control not treated the furan derivative was arbitrarily set as 100% (Tables 14 to 16).

| Structure (SMILES) | Inhibition rate against osteoclast formation, % (0.1 μM) [%] | Inhibition rate against osteoclast formation, % (1 μM) [%] | Inhibition rate against osteoclast formation, % (10 μM) [%] |
| --- | --- | --- | --- |
| CCCc1ccc(OCc2ccc(C(=O)Nc3cc(Cl)ccc3Cl)o2)cc1 [Compound 170] | 0 | 0 | – |
| COc1ccc(C)cc1NC(=O)c1ccc(COc2cccc(Cl)c2)o1 [Compound 171] | 0 | 0 | 0.42 |
| Cc1cc(OCc2ccc(C(=O)Nc3cccc(C)c3C)o2)ccc1Cl [Compound 172] | 0 | 0 | – |
| Cc1cc(OCc2ccc(C(=O)Nc3ccc(Cl)cc3)o2)ccc1Cl [Compound 173] | 0 | 0 | – |
| COc1ccccc1OCc1ccc(C(=O)Nc2ccccc2Cl)o1 [Compound 174] | 0 | 0 | – |
| COc1ccccc1OCc1ccc(C(=O)Nc2ccc(C)c(C)c2)o1 [Compound 175] | 0 | 0 | – |
| CCCc1ccc(OCc2ccc(C(=O)Nc3ccc(F)cc3F)o2)c(OC)c1 [Compound 176] | 0 | 0 | – |
| Cc1cc(C)cc(OCc2ccc(C(=O)Nc3ccccc3F)o2)c1 [Compound 177] | 0 | 0 | – |
| O=C(Nc1ccccc1F)c1ccc(COc2ccc(Cl)cc2)o1 [Compound 178] | 0 | 0 | – |
| Cc1cccc(C)c1NC(=O)c1ccc(COc2ccc(Cl)cc2)o1 [Compound 179] | 0 | 0 | – |
| COC(=O)c1ccccc1NC(=O)c1ccc(COc2ccc(C)c(C)c2)o1 [Compound 180] | 0 | 0 | – |
| O=C(Nc1cc(C(F)(F)F)ccc1Cl)c1ccc(COc2ccc(Cl)cc2)o1 [Compound 181] | 0 | 0 | – |
| COc1cc([N+](=O)[O-])ccc1NC(=O)c1ccc(COc2ccc(Cl)cc2)o1 [Compound 182] | 0 | 0 | – |
| O=C(Nc1ccccc1[N+](=O)[O-])c1ccc(COc2ccccc2Cl)o1 [Compound 183] | 0 | 0 | – |
| O=C(Nc1ccc(F)cc1F)c1ccc(COc2c(F)c(F)cc(F)c2F)o1 [Compound 185] | 0 | 0 | – |
| Cc1ccc(OCc2ccc(C(=O)Nc3ccc(F)c(F)c3)o2)cc1C [Compound 186] | 0 | 0 | – |
| COc1ccc(NC(=O)c2ccc(COc3ccccc3Br)o2)c(OC)c1 [Compound 188] | 0 | 0 | 7.6 |
| COc1ccccc1NC(=O)c1ccc(COc2ccc(C(C)(C)C)cc2)o1 [Compound 189] | 0 | 0 | – |
| O=C(Nc1ccc(I)cc1)c1ccc(COc2ccccc2Br)o1 [Compound 190] | 0 | 0 | – |
| O=C(Nc1cccc([N+](=O)[O-])c1)c1ccc(COc2ccc(I)cc2)o1 [Compound 191] | 0 | 0 | – |
